# Laboratory results from patent US6897287B1, “Ro/SSA peptide reagents for diagnosis of autoantibodies” (Oklahoma Medical Research Foundation, priority 1990, dated 2005).
# Entries after “also recorded” stand apart in the source; their conditions may differ. Where no end group is shown, it is not given here.
# Tested on: sera that contain an anti-Sm precipitin in the absence of an anti-nRNP precipitin
# Experiment: Solid phase antipeptide assay with sera having anti-Sm precipitin alone
# Assay type: binding, human
# Conditions: anti-Sm precipitin without anti-nRNP precipitin
# Protocol: Solid phase antipeptide assay. Wash steps and incubations were carried out in sealed plastic containers. Other assay steps were performed by lowering the pins into microliter plate wells. First, pins were blocked with 3% low-fat milk in PBS for 1 h at room temperature. Pins were then incubated in 1/100 dilutions of sera in 3% milk/PBS with 0.05% TWEEN® (surfactant) overnight at 4° C. in humidified sealed containers. The pin blocks were then washed four times with PBS with 0.05% TWEEN® (surfactant) for 10 min each with vigorous agitation. Next, each pin was incubated with anti-human gamma-chain specific IgG raised in a goat, affinity purified and conjugated to alkaline phosphatase (Jackson Immunoresearch Laboratories, West Grove, Pa.) at a {fraction (1/10,000)} dilution. Paranitrophenyl phosphate disodium was used as a substrate for alkaline phosphatase and plates were read at 405 nm with a MICROELISA Reader (Dynatech, Alexandria, Va.). Results for each plate were then standardized by comparison with positive control pins. The same control pins were used for all plates and were allowed to develop to a specific OD with a known concentration of a standard control sera.
# All antigenic sites determined in this study require a positively charged amino acid. The size of these sites varies from two nonconsecutive basic amino acids to an entire octapeptide. […]
row,Substance,binding in words
1,PPPGMRPP (listed as Homo sapiens),does not appear to be bound

# Tested on: KSm 3 monoclonal autoantibody
# Experiment: Binding of monoclonal antibody KSm 3 to Sm B/B' octapeptides
# Set-up: species or system MRL lpr/lpr mouse
# Conditions: hybridoma supernatant
# Description: (§1) Autoantibodies binding the Sm B and B′ peptides (B/B′) are commonly associated with systemic lupus erythernatosus in man and in MRL lpr/lpr mice. KSm 3 and KSm 5 were derived from an unmanipulated MRL lpr/lpr mouse using hybridoma monoclonal antibody technology. Supernatants containing KSm 3 and KSm 5 monoclonal antibodies were collected from cloned murine hybridoma cell lines in RPMI 1640 with 10% fetal bovine serum, glutamine, penicillin and streptomycin. These monoclonal autoantibodies are both of the IgG2a subclass. The linear antigenic regions of these two anti-Sm B/B′ murine monoclonal autoantibodies have been mapped using overlapping octapeptides. Unique epitopes are identified by each monoclonal. Monoclonal antibody KSm 5 recognizes the peptide, PPPGMRPP (amino acids 4-11 of SEQ ID NO:14), which is repeated three times in the Sm B polypeptide. […] Both of these regions of Sm B/B′ are major areas of antigericity for human anti-Sm autoantibodies. […] When the arginine in the sixth position PPPGMRPP (amino acids 4-11 of SEQ ID NO:14) is substituted KSm 5 binding is found in an unexpected subset of octapeptides. […] In contrast, binding of KSm 3 to PPPGIRPP (SEQ ID NO:122) is abolished when the sixth position arginine is substituted by any other amino acid. These two murine autoantibodies bind distinct linear epitopes of Sm B/B′ which are also bound by human anti-Sm B/B′ autoantibodies. […]
row,Substance,binding by KSm 3 in words
1,PGIRGPPP (homo sapien),binds best
2,PPPGIRGP (listed as Homo sapiens),binds best

# Tested on: anti-Sm and anti-nRNP precipitin sera (IgG)
# Experiment: Solid phase antipeptide assay of Sm B/B' and related peptides with Sm, nRNP precipitin positive sera
# Assay type: binding, human
# Conditions: deletion peptides, six patient sera
# Protocol: Sera. Human sera form patients who satisfied the classification criteria of the American Rheumatism Association for SLE or normal age-matched, sex-matched controls were used in this study. Fifteen sera from lupus patients were tested. Ten of these sera tested contained antibodies that formed strong precipitin lines with both Sm and nRNP, three formed precipitin lines with only nRNP, one formed a precipitin line with Ro/SSA and La/SSB, and one formed a precipitin line with only Ro/SSA. All of these serologic findings were confirmed by appropriate molecular weight bands for the reported antigen being bound in immunoblot by the respective sera.
# Solid-phase noncleavable peptide synthesis. The published sequence of Sm B/B′ was used to construct all the possible overlapping octapeptides. The amino acids used for peptide synthesis had Fmoc protected primary amino groups and t-butyl (or other appropriate group) protected side chains. Overlapping octapeptides were simultaneously synthesized at the rounded ends of radiation derivatized polyethylene pins that were arranged in the format of a 96 well microliter plate (Cambridge Research Biochemicals. Cambridge, UK and Coselco Mimotopes Pty Ltd. Victoria, Australia) The active esters of Fmoc, t-butyl amino acid solutions (30 mM) were solubilized in DMF that had […] added to a final concentration of 30 mM and dispensed into the wells of a microliter plate. Each amino acid was added as determined by the 240 amino acids of the Raji Sm B/B′ sequence. After 18 h of incubation, the pins were washed in DMF for 5 min. four times at 2 min each in methanol, and once again in DMF for 5 min. The Fmoc protecting groups were then removed from the newly added amino acid by a 20% piperidine/DMF bath for 30 min. These steps were repeated until all eight amino acids were added. After the final amino acid, the amino terminal groups of each peptide was acetylated by incubating the pins in a 5:2:1 (v/v/v) mixture of DMF:acetic anhydride: triethylamine for 90 min at room temperature. After this step the pins were again washed in DMF for 2 min, four times at 2 min each in methanol, and then air-dried for 10 min. Finally, side chain amino protecting groups were removed by […] (v/w/v) of trifluoracetic acid:phenol:ethanedithiol. Wash steps included 2 min in methylene chloride, two times at 5 min each in 5% […]/methylene chloride, and a final methylene chloride wash for 5 min. After drying for 10 min., pins were placed in distilled water for 2 min., transferred to a methanol bath for 18 h. and dried under vacuum for 18 h. This procedure was repeated to synthesize another set of the carboxyl-terminal 36 octapeptides to allow substantiation of the previous data. In addition other octapeptides, including the amino acid changes seen in the vanDam/Ohosone Proc. Natl. Acad. Sci. USA 86:4249 (1989) sequences, were also synthesized. Selected substitution and deletion sequences, along with similar sequences from other proteins, were also constructed. Control pins composed of amino acids in a random sequence were prepared that were not present in any of the Sm or nRNP antigen sequences. In addition, positive control pins were synthesized from a known reactive sequence of the La/SSB peptide.
# Solid phase antipeptide assay. Wash steps and incubations were carried out in sealed plastic containers. Other assay steps were performed by lowering the pins into microliter plate wells. First, pins were blocked with 3% low-fat milk in PBS for 1 h at room temperature. Pins were then incubated in 1/100 dilutions of sera in 3% milk/PBS with 0.05% TWEEN® (surfactant) overnight at 4° C. in humidified sealed containers. The pin blocks were then washed four times with PBS with 0.05% TWEEN® (surfactant) for 10 min each with vigorous agitation. […]
row,Substance,reactivity to the PPPGMRPP motif destroyed
1,PPPGM (homo sapien; (3)..(10) Binding site),Greater than 60%

# Same assay, conditions: sera 1/100, Sm and nRNP precipitin positive SLE patients
row,Substance,antigenicity / reactivity in words
1,DCDEFRKI (homo sapien) [octapeptide 44],Binding is lost
2,PAPGMRPP (homo sapien),as antigenic as PPPGMRPP
3,PKNAKQPE (homo sapien) [octapeptide 53],Binding is lost
4,PPP,no solely poly-proline sequence tested
5,PPPGIRGP (listed as Homo sapiens),"bound by all the Sm, nRNP sera tested"
6,PPPGMIPP (homo sapien),not antigenic; also recorded: does not bind
7,PPPGMR (not fully specified),does not appear to significantly alter binding
8,PPPGMRP (PPPGMXP; homo sapien; (3)..(10) Binding site),does not appear to significantly alter binding
9,PPPGMRPP (listed as Homo sapiens),especially antigenic; also recorded: consistently the most immunoreactive; also recorded: similarly antigenic in each; also recorded: major linear antigenic epitope
10,PPPP (homo sapien),no solely poly-proline sequence tested
11,PPPPP (homo sapien),no solely poly-proline sequence tested

# Same assay, conditions: sera 1/100, Sm and nRNP precipitin positive SLE patients; listed as nRNP A
row,Substance,antigenicity / reactivity in words
1,PPPGMIPP (homo sapien),relatively no reactivity

# Same assay, conditions: substituted or homologous octapeptides, six patient sera
row,Substance,original reactivity (binding) of PPPGMRPP retained
1,PAPGMRPP (homo sapien),over 90%

# Tested on: KSm 5 monoclonal autoantibody
# Experiment: Binding of monoclonal antibody KSm 5 to Sm B/B' octapeptides
# Set-up: species or system MRL lpr/lpr mouse
# Conditions: hybridoma supernatant
# Description: as §1
row,Substance,binding by KSm 5 in words
1,PPPGMRPP (listed as Homo sapiens),recognizes

# Tested on: antibody of patient serum
# Experiment: Solid phase assay of nRNP (70 kD, A, C) octapeptides with patient sera
# Assay type: binding, human
# Conditions: nRNP A sequences marked (*)
# Description: The sequence of the 70 kD nuclear ribonucleoprotein (nRNP) is reported by R. A. Spritz, et al., in Nucleic Acids Res. 24: 10373-10391 (1987), the teachings of which are incorporated herein. The data analysis is done the same as for the Ro/SSA and La/SSB antigens. Each sequence identified represents the binding of antibody to octapetides that exceed arbitrary criteria in the solid phase assay. The identified antigenic regions are more than two standard deviations above the mean of normal sera and are bound by more than half of the patients. For the binding to the 70 kD peptide, the threshold in the assay is A410 of 0.380. The numbers in parentheses are the sequence positions of the first amino acid in the first octapeptide that exceeds the threshold. Each identified sequence is composed of one or more octapeptides. The number of octapeptides in each sequence is the length of the sequence […]. The underlined part of the sequence is the octapeptide that is bound most by the patient serum. In some cases, another octapeptide is essentially equivalent but not underlined.
row,Substance,proportion of sera binding
1,ERDRKREKRKPKS,bound by a subset of the sera tested
2,LVSRSLKMRQAF,bound by a subset of the sera tested

# Tested on: affinity purified anti-La/SSB antibodies
# Experiment: Pin ELISA of La/SSB octapeptides with affinity purified anti-La/SSB antibodies
# Assay type: binding, human
# Conditions: affinity enriched preparation, patient E11; peak or average reactivities
# Protocol: Solid Phase Anti-peptide Assay. All steps were carried out by immersing the pin blocks into microtiter plate wells. Pins were incubated in blocking buffer (1% bovine serum albumin (BSA) in phosphate buffered saline (PBS), pH 7.2) for 1 h at room temperature and then in 1:100 dilutions of sera in diluent (1% BSA and 0.05% Tween in PBS) overnight at […] in humidified containers. Pin blocks were washed four times with wash buffer (0.05% Tween in PBS) for 10 min with agitation and then immersed for 1 h at room temperature in affinity purified goat anti-human-chain specific antibody conjugated to alkaline phosphatase (Sigma Chemical Co., St. Louis, Mo.) diluted 1:1000 in diluent. After washing as above, pins were incubated in para-nitrophenyl phosphate solution at 37° C. for 2 h. Color development was read at 410 nm on a DYNATECH® MR5000 ELISA plate reader.
# Samples. Sera from five normal, healthy donors and ten patients with primary SS and/or SLE were screened by pin ELISA for antibodies binding to the La/SSB octapeptides. Eight of these ten patients had both anti-Ro/SSA and anti-La/SSB precipitin forming autoantibodies, and seven of these eight had borne children with congenital heart block (CCHB). Two patients had antibodies to Ro/SSA alone. Anti-La/SSB antibodies were affinity purified from the sera of two patients on La/SSB cross-linked immunosorbents as described by Horsfall, et al., J. Immunol. Meth. 104:43 (1987).
# Anti-La/SSB antibodies from two patients have been affinity purified on La/SSB cross-linked immunosorbents. […] The affinity enriched preperation binds 17 of the 18 previously identified epitopes, the exception being epitope 17 (octapeptide 379); however, this preperation does bind octapeptides adjacent to epitope 17, particularly octapeptides 380 and 382. Those putative epitopes in which the binding is most enriched include epitopes 2, 3, 6, 9, 10, 12, 13 and 15. These same epitopes appear enriched whether peak or average reactivities for each putative epitope are compared. Essentially the same results have been obtained from an affinity enriched preparation of the anti-La/SSB from a second patient.
row,Substance,enrichment of binding relative to the serum
1,EGIILFKEKAK [epitope 13],most enriched
2,GEIKWIDFVRGAK [epitope 6],most enriched
3,ICHQIEYYFGDFNLPRDKFLK [epitope 2],most enriched
4,IFVVFDSIE [epitope 9],most enriched
5,KETDLLILFKDDYFA [epitope 10],most enriched
6,REDLHILF [epitope 15],most enriched
7,TDFNVIVEA [epitope 12],most enriched
8,WVPLEIMIKFNR [epitope 3],most enriched

# Same assay, conditions: preparation from patient E11
row,Substance,binding by affinity enriched anti-La/SSB preparation
1,"octapeptide 380: La/SSB octapeptide adjacent to epitope 17, starting at amino acid 380 (GPVKRARE; UniProt P05455 380-387, looked up, fragment)",does bind
2,"octapeptide 382: La/SSB octapeptide adjacent to epitope 17, starting at amino acid 382 (VKRAREET; UniProt P05455 382-389, looked up, fragment)",does bind
